This note sets out measurements from ChEMBL document CHEMBL1142695, “Discovery of functionally selective 7,8,9,10-tetrahydro-7,10-ethano-1,2,4-triazolo[3,4-a]phthalazines as GABA A receptor agonists at the alpha3 subunit” (J Med Chem, 2005).

Assay type in all cases: cell-based
The target of assay [1] is T1, GABA-A receptor; alpha-3/beta-3/gamma-2 (Homo sapiens, UniProt P18507+P28472+P34903).
T1 sequence (P18507 whole entry): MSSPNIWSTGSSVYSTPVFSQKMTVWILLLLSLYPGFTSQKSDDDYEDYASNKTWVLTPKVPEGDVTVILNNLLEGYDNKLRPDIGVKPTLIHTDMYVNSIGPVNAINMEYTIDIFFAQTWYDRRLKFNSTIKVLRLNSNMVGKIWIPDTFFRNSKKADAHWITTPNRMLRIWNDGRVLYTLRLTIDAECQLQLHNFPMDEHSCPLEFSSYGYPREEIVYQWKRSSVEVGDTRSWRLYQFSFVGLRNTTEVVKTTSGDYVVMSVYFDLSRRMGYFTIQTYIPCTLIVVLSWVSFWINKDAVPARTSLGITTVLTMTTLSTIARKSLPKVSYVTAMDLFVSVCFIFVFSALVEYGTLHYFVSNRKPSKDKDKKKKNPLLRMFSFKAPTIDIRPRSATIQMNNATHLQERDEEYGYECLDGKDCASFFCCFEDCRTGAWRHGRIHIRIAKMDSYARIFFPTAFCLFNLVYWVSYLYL
T1 sequence (P28472 whole entry): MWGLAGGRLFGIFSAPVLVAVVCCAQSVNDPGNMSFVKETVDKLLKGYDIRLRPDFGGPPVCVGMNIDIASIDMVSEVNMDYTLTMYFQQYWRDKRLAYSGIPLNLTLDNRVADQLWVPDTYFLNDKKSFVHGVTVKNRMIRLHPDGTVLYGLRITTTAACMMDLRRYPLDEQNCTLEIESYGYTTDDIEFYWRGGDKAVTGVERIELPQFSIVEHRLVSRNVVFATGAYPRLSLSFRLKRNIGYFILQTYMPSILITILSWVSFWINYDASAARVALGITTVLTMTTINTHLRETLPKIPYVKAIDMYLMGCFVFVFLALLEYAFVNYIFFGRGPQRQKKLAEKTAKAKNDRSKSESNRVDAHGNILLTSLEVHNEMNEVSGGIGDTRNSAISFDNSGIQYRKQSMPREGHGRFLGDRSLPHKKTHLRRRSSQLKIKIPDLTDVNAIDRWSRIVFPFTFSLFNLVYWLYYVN
T1 sequence (P34903 whole entry): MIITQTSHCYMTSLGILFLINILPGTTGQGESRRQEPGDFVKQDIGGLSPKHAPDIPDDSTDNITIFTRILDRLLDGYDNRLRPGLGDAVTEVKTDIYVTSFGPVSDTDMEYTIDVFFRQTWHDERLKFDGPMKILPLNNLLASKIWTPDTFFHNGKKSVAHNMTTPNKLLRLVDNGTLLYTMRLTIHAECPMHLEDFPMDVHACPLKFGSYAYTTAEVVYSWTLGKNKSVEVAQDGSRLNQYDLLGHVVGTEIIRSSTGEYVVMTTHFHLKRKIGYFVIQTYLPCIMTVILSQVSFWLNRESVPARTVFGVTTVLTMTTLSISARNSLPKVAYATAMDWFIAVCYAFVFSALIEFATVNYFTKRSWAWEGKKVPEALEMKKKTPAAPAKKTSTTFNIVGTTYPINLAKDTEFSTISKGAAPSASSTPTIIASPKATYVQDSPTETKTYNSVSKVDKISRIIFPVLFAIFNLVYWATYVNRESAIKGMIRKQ
The assay is described as follows: Inhibition of [3H]Ro-151788 binding to recombinant human gamma-aminobutyric-acid A receptor alpha-3-beta-3-gamma-2 subtype expressed in L (tk-) cells.

Assay [2] deals with T2, GABA-A receptor; alpha-5/beta-3/gamma-2 (Homo sapiens, UniProt P18507+P28472+P31644).
T2 sequence (P18507 whole entry): T1 sequence (P18507 whole entry)
T2 sequence (P28472 whole entry): T1 sequence (P28472 whole entry)
T2 sequence (P31644 whole entry): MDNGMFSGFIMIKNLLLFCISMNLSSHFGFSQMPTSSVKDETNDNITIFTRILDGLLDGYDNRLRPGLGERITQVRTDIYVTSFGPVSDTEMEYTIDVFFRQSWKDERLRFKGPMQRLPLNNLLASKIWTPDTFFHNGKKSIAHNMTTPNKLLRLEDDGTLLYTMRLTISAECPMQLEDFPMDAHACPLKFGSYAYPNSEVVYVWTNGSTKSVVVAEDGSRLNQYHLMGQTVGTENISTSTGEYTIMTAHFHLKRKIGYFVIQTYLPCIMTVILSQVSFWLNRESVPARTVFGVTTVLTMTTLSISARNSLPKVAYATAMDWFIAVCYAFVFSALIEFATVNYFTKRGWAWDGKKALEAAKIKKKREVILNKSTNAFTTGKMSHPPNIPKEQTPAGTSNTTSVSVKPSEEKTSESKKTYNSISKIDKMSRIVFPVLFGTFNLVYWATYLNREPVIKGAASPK
Briefly: Inhibition of [3H]Ro-151788 binding to recombinant human gamma-aminobutyric-acid A receptor alpha-5-beta-3-gamma-2 subtype expressed in L (tk-) cells.

The target of assay [3] is T3, GABA-A receptor; alpha-1/beta-3/gamma-2 (Homo sapiens, UniProt P14867+P18507+P28472).
T3 sequence (P14867 whole entry): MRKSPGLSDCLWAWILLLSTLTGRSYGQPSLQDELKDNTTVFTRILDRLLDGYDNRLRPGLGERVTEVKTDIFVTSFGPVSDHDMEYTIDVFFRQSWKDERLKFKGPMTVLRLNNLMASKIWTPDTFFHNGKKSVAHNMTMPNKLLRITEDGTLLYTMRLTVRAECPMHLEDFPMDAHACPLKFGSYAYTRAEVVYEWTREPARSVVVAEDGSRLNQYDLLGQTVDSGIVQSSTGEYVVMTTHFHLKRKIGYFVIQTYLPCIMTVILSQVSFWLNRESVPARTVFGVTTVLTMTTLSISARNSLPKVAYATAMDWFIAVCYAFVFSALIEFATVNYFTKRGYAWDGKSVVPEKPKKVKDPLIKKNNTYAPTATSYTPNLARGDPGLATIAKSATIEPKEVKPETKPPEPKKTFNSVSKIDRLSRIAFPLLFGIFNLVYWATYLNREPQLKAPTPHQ
T3 sequence (P18507 whole entry): T1 sequence (P18507 whole entry)
T3 sequence (P28472 whole entry): T1 sequence (P28472 whole entry)
Briefly: Inhibition of [3H]Ro-151788 binding to recombinant human gamma-aminobutyric-acid A receptor alpha-1-beta-3-gamma-2 subtype expressed in L (tk-) cells.

The target of assay [4] is T4, GABA-A receptor; alpha-2/beta-3/gamma-2 (Homo sapiens, UniProt P18507+P28472+P47869).
T4 sequence (P18507 whole entry): T1 sequence (P18507 whole entry)
T4 sequence (P28472 whole entry): T1 sequence (P28472 whole entry)
T4 sequence (P47869 whole entry): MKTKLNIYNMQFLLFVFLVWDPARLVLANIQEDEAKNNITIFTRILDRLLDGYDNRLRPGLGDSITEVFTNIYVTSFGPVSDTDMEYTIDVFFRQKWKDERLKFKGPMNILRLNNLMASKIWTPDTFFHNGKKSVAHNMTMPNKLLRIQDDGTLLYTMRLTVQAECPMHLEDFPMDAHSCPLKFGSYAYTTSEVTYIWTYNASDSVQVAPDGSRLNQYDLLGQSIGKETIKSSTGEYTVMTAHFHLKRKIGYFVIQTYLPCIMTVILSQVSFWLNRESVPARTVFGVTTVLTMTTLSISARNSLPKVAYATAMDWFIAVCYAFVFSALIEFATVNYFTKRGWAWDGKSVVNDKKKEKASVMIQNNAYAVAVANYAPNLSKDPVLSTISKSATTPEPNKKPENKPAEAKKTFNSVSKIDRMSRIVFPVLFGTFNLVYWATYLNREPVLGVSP
The assay is described as follows: Inhibition of [3H]Ro-151788 binding to recombinant human gamma-aminobutyric acid A receptor alpha-2-beta-3-gamma-2 subtype expressed in L (tk-) cells.

One may read the Ki as a dissociation constant, usually derived from enzyme kinetics or from competition with a known ligand. In the case of `CSOc1ccc(COc2nn3c(-c4ccccc4)nnc3c3c2C2CCC3CC2)cc1`, the Ki amounted to 31 nM in assay [1], 7.6 nM in assay [2], 96 nM in assay [3] and 41 nM in assay [4].

Consider `Cc1ccccc1-c1nnc2c3c(c(OCc4ccccn4)nn12)C1CCC3CC1`, for which the Ki was 280 nM in assay [1], 22 nM in assay [2], greater than 1000 nM in assay [3] and 280 nM in assay [4].

Consider `Cc1scnc1COc1nn2c(-c3ccccc3)nnc2c2c1C1CCC2CC1`, for which the Ki is 12 nM in assay [1], 0.77 nM in assay [2], 35 nM in assay [3] and 21 nM in assay [4].

`c1ccc(-c2nnc3c4c(c(OCc5ccc6ccccc6n5)nn23)C2CCC4CC2)cc1`: the Ki in assay [1] is 77 nM; in assay [2] it was 9.5 nM; in assay [3], 480 nM; in assay [4], 200 nM.

`c1ccc(-c2nnc3c4c(c(COc5ccccn5)nn23)C2CCC4CC2)cc1`: the Ki in assay [1] is 120 nM; in assay [2], 58 nM; in assay [3] it was 440 nM; in assay [4], 230 nM.

Take `c1ccc(-c2nnc3c4c(c(OCc5ccco5)nn23)C2CCC4CC2)cc1`: the Ki in assay [1], in assay [2], in assay [3] and in assay [4] was greater than 500 nM each time.

Turning to `N#Cc1ccccc1COc1nn2c(-c3ccccc3)nnc2c2c1C1CCC2CC1`, the Ki in assay [1] came to 53 nM; in assay [2] it was 2.6 nM; in assay [3], 190 nM; in assay [4], 83 nM.

Regarding `OCC1CCC(COc2nn3c(-c4ccccc4)nnc3c3c2C2CCC3CC2)CC1` (trans isomer), the Ki was 57 nM in assay [1], 41 nM in assay [2], 150 nM in assay [3] and 77 nM in assay [4].

In the case of `c1ccc(COc2nn3c(C4CC4)nnc3c3c2C2CCC3CC2)nc1`, the Ki in assay [1] was found to be 18 nM; in assay [2], 1.8 nM; in assay [3] it was 130 nM; in assay [4] it was 24 nM.

For `CN1CCCC(COc2nn3c(-c4ccccc4)nnc3c3c2C2CCC3CC2)C1` (centres undefined), the Ki in assay [1] came to 460 nM; in assay [2], 100 nM; in assay [3] it was 750 nM; in assay [4] it was 260 nM.

On to `Cn1nnnc1COc1nn2c(-c3ccccc3)nnc2c2c1C1CCC2CC1`, for which the Ki in assay [1] was found to be 21 nM; in assay [2] it was 4.4 nM; in assay [3] it was 78 nM; in assay [4] it was 59 nM.

`OCC1CCC(COc2nn3c(-c4ccccc4)nnc3c3c2C2CCC3CC2)CC1` (stereo in doubt): the Ki is greater than 1000 nM in assay [1], 88 nM in assay [2], greater than 1000 nM in assay [3] and greater than 1000 nM in assay [4].

For `c1ccc(COc2nn3c(-c4ccccc4)nnc3c3c2C2CCC3CC2)cc1`, the Ki in assay [1] is greater than 1000 nM; in assay [2], 110 nM; in assay [3], greater than 1000 nM; in assay [4] it was greater than 1000 nM.

On to `Cc1csc(COc2nn3c(-c4ccccc4)nnc3c3c2C2CCC3CC2)n1`, for which the Ki stood at 30 nM in assay [1], 2.9 nM in assay [2], 140 nM in assay [3] and 40 nM in assay [4].

For the compound `c1ccc(COc2nn3c(N4CCOCC4)nnc3c3c2C2CCC3CC2)nc1`, the Ki in assay [1], in assay [2], in assay [3] and in assay [4] was greater than 1000 nM each time.

For `Cc1csc(-c2nnc3c4c(c(OCc5ccccn5)nn23)C2CCC4CC2)n1`, the Ki in assay [1] is 100 nM; in assay [2], 26 nM; in assay [3], greater than 1000 nM; in assay [4] it was 140 nM.

On to `O=C1CCC(COc2nn3c(-c4ccccc4)nnc3c3c2C2CCC3CC2)N1` (centres undefined), for which the Ki was 260 nM in assay [1], 59 nM in assay [2], 730 nM in assay [3] and 480 nM in assay [4].

For `c1ccc(-c2nnc3c4c(c(OCc5ncccc5OC5CCC5)nn23)C2CCC4CC2)cc1`, the Ki in assay [1] was determined as 38 nM; in assay [2], 4.2 nM; in assay [3] it was 32 nM; in assay [4], 43 nM.

On to `c1ccc(COc2nn3c(-c4ccncc4)nnc3c3c2C2CCC3CC2)nc1`, for which the Ki is 150 nM in assay [1], 20 nM in assay [2], greater than 1000 nM in assay [3] and 320 nM in assay [4].

For `c1ccc(-c2nnc3c4c(c(OCc5ccsc5)nn23)C2CCC4CC2)cc1`, the Ki in assay [1], in assay [2], in assay [3] and in assay [4] was greater than 500 nM each time.

Regarding `c1ccc(-c2nnc3c4c(c(Oc5cccnc5)nn23)C2CCC4CC2)cc1`, the Ki in assay [1], in assay [2], in assay [3] and in assay [4] was greater than 500 nM in each case.

`Cc1ccc(-c2nc3ccc(C)cn3c2CC(=O)N(C)C)cc1` [ZOLPIDEM]: the Ki in assay [1] was 246 nM; in assay [2], greater than 3330 nM; in assay [4], 103 nM.

Consider `c1ccc(-c2nnc3c4c(c(OCc5nnc[nH]5)nn23)C2CCC4CC2)cc1`, for which the Ki in assay [1] is 19 nM; in assay [2], 2.8 nM; in assay [3], 43 nM; in assay [4], 25 nM.

Turning to `Fc1ccc(-c2nnc3c4c(c(OCc5ccccn5)nn23)C2CCC4CC2)cc1`, the Ki in assay [2] amounted to 27 nM; in assay [3], 310 nM; in assay [4], 180 nM.
